Test [1] addresses T1, human MrgX1 receptor (Homo sapiens, UniProt Q96LB2). Put plainly: Intracellular calcium mobilization (Fura-2) in transfected cells. The format is cell-based. Particulars: for MrgX1 pEC50: human MrgX1; for MrgX1 Eff %: normalized to response to BAM22 (100%). On the set-up: expressed in transfected cells. Here is the method:
1. CHO-K1 cells transfected with human MrgX1, simian MrgX1, human MrgX2 and simian MrgX2 receptors or a control receptor at a density 1-3×10^6 cells/mL were washed with phosphate-buffered saline.
2. Cells were loaded with 2 μM Fura-2 and analyzed with respect to the rise in intracellular calcium in the presence or absence of varying concentration of test compound.
3. The response was compared to that elicited by the application of the standard reference ligands BAM22 or Cortistatin-14 at 100 nM.
4. Intracellular free calcium concentrations were calculated using the formula:
[formula] • where Kd for Fura-2 is 224 nM, Fmax is the fluorescence in the presence of 0.04% Triton-X100 and Fmin is the fluorescence obtained after the addition of 5 mM EGTA in 30 mM Tris-HCl, pH7.4.

Test [2] concerns the target T1, human MrgX1 receptor. Put plainly: Receptor Selection and Amplification Technology (R-SAT) functional assay, transfected NIH3T3 cells. In kind it is cell-based. On the set-up: expressed in transfected cells; host or cells: NIH3T3. As to conditions: for EC50 / Human-MrgX1 pEC50: pEC50 = negative log of molar EC50; for Human-MrgX1 Eff(%): percent maximal activation relative to Bam22. Here is the method:
(§1) The functional receptor assay, Receptor Selection and Amplification Technology (R-SAT), was used to investigate the pharmacological properties of test compounds on MRGX1 or MRGX2 receptors. R-SAT is disclosed in U.S. Pat. Nos. 5,707,798, 5,912,132, and 5,955,281, each of which is incorporated by reference herein in its entirety, including any drawings.
(§2) Briefly, NIH3T3 cells were grown in 96-well tissue culture plates to 70-80% confluence. Cells were transfected for 16-20 h with plasmid DNAs using Polyfect (Qiagen Inc.) and the manufacturer's protocols. R-SATs were generally performed with 4 ng/well of receptor and 20 ng/well of β-galactosidase plasmid DNA. The human MrgX1, simian MrgX1, human MrgX2 and simian MrgX2 receptor genes were amplified by PCR from genomic DNA using oligodeoxynucleotide primers as described in U.S. patent application Ser. No. 11/359,209, which is incorporated by reference herein in its entirety, including any drawings. For large-scale transfections, cells were transfected for 16-20 h, then trypsinized and frozen in DMSO. Frozen cells were later thawed, plated at ˜10,000 cells per well of a 96 half-area well plate that contained test compound. With both methods, cells were then grown in a humidified atmosphere with 5% ambient CO2 for five days. The medium was then removed from the plates and marker gene activity was measured by the addition of the β-galactosidase substrate o-nitrophenyl β-D-galactopyranoside (ONPG, in PBS with 0.5% NP-40). The resulting […] reaction was measured in a spectrophotometric plate reader (Titertek Inc.) at 420 nm. All data were analyzed using the computer program XLFit (IDBSm). Efficacy is defined as the percent maximal activation compared to activation by a control compound (BAM22 in the case of human or simian MRGX1, STIA or Cortistatin-14 in the case of human or simian MRGX2). pEC50 is the negative of log(EC50), where EC50 is the calculated molar concentration of test compound that produces 50% of maximum activation.
(§3) Efficacy is reported relative to the ligands Bam22 for MrgX1 and STIA for MrgX2.

In test [3] the target is T2, simian MrgX2 receptor (Macaca mulatta, UniProt Q4QXU5).
T2 construct: expressed in transfected cells; host or cells: NIH3T3
T2 sequence (Q4QXU5 whole entry): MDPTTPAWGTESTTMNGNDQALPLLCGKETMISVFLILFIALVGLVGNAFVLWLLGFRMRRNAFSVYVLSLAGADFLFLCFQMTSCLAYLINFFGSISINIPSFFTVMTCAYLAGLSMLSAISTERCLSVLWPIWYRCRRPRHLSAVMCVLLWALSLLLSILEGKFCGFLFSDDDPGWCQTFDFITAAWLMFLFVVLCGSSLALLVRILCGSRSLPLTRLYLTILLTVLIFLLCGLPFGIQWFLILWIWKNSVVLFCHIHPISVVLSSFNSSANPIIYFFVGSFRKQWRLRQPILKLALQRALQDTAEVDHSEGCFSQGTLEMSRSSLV
The test is described as above. In kind it is cell-based, rhesus monkey. As to conditions: for Monkey-MrgX2 Eff(%): percent maximal activation relative to STIA. Here is the method:
as §1, §2, §3

Test [4] concerns the target simian MrgX1 receptor (Macaca mulatta, UniProt A0A5F7ZSN8). Described as above. The format is cell-based, rhesus monkey. Particulars: percent maximal activation relative to Bam22, read-out: Monkey-MrgX1 Eff(%). Here is the method: as §1, §2, §3
The target of test [5] is T3, human MrgX2 receptor (Homo sapiens, UniProt Q96LB1).
T3 construct: expressed in transfected cells; host or cells: NIH3T3
T3 sequence (Q96LB1 1-330): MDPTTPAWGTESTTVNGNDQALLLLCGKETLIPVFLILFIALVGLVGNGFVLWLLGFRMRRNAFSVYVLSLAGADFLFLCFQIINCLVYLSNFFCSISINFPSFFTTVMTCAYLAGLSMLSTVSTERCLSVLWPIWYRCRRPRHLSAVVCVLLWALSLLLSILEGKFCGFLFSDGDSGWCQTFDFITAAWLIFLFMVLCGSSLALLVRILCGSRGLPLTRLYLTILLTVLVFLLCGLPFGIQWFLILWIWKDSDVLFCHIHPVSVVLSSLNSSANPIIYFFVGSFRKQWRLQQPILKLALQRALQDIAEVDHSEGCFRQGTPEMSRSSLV
Described as above. Particulars: for Human-MrgX2 Eff(%): percent maximal activation relative to STIA. In kind it is cell-based. Here is the method:
as §1, §2, §3

The source of these data is patent US20080249081A1, “COMPOUNDS FOR THE TREATMENT OF PAIN AND SCREENING METHODS THEREFOR” (priority 2006, published 2008).

T1 sequence (Q96LB2 whole entry): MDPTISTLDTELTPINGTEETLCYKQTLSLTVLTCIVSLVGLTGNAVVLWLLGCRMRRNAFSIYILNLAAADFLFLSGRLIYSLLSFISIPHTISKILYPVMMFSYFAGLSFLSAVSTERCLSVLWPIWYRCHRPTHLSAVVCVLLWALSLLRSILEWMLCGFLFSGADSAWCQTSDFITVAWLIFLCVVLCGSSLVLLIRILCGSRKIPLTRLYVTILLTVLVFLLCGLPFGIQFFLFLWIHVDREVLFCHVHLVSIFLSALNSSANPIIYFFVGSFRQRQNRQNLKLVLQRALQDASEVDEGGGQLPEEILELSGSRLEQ
simian MrgX1 receptor, sequence (A0A5F7ZSN8 1-322): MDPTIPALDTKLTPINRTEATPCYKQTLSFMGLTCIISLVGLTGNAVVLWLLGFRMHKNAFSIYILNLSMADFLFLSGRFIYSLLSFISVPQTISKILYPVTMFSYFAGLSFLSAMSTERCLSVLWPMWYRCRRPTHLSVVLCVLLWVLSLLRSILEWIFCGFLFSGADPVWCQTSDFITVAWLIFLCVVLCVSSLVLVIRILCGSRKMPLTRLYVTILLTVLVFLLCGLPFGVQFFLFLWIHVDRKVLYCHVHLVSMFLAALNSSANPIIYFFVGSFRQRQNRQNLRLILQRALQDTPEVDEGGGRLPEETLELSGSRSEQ

`N=C(N)NCCC[C@@H](C(N)=O)n1c(-c2cccc(Oc3ccccc3)c2)nc2cc(C(=O)N3CCN(c4ccc(F)cc4)CC3)ccc21` [Compound 1, (α^1R)-α-[3-[(aminoiminomethyl)amino]propyl]-5-[[4-(4-fluorophenyl)-1-piperazinyl]carbonyl]-2-(3-phenoxyphenyl)-1H-benzimidazole-1-acetamide]: in test [1], the “MrgX1 pEC50” value is recorded as 6.6 and the “MrgX1 Eff %” value is given as 88%. In test [2], the EC50 (commonly the concentration at which the effect is half-maximal) is 1000 nM and the “Human-MrgX1 Eff(%)” value is 146%. In test [3], the “Monkey-MrgX2 pEC50” value is reported as less than 4.5 and the “Monkey-MrgX2 Eff(%)” value is given as 25%. Besides, in test [4], the Emax turned out to be 148%. Besides, in test [5], the “Human-MrgX2 pEC50” value is recorded as “nr” and the “Human-MrgX2 Eff(%)” value is −1%.
As to `Cc1cccc(N2CCN(C(=O)c3ccc4c(c3)nc(-c3cccc(Oc5ccccc5)c3)n4[C@@H](CCCNC(=N)N)C(N)=O)CC2C)c1` (stereo partly drawn) [Compound 2, (α^1R)-α-[3-[(aminoiminomethyl)amino]propyl]-5-[[3-methyl-4-(3-methylphenyl)-1-piperazinyl]carbonyl]-2-(3-phenoxyphenyl)-1H-benzimidazole-1-acetamide], in test [1], the “MrgX1 pEC50” value stood at 7.6 and the “MrgX1 Eff %” value is 92%. Moreover, in test [2], the response was half-maximal at 631 nM (EC50) and the “Human-MrgX1 Eff(%)” value is listed as 220%. The “Monkey-MrgX2 Eff(%)” value in test [3] was found to be 22%. Besides, in test [4], the Emax was found to be 316%. Also, in test [5], the “Human-MrgX2 pEC50” value was “nr” and the “Human-MrgX2 Eff(%)” value is given as 17%.
`N=C(N)NCCC[C@@H](C(N)=O)n1c(-c2cccc(Oc3ccccc3)c2)nc2cc(C(=O)NCCc3ccccn3)ccc21` [Compound 3, (α^1R)-α-[3-[(aminoiminomethyl)amino]propyl]-2-(3-phenoxyphenyl)-5-[[[2-(2-pyridinyl)ethyl]amino]carbonyl]-1H-benzimidazole-1-acetamide]: in test [1], the “MrgX1 pEC50” value was 6.4 and the “MrgX1 Eff %” value is given as 106%. In test [2], a half-maximal response (EC50) required 158 nM and the “Human-MrgX1 Eff(%)” value came out at 176%. Further, the “Monkey-MrgX2 Eff(%)” value in test [3] is on record as 4%. In addition, the Emax in test [4] turned out to be 160%. In test [5], the “Human-MrgX2 pEC50” value is “nr” and the “Human-MrgX2 Eff(%)” value is reported as 4%.
`CN(CCc1ccccn1)C(=O)c1ccc2c(c1)nc(-c1cccc(Oc3ccccc3)c1)n2[C@@H](CCCNC(=N)N)C(N)=O` [Compound 4, (α^1R)-α-[3-[(aminoiminomethyl)amino]propyl]-5-[[methyl[2-(2-pyridinyl)ethyl]amino]carbonyl]-2-(3-phenoxyphenyl)-1H-benzimidazole-1-acetamide]: in test [1], the “MrgX1 pEC50” value stood at 6.7 and the “MrgX1 Eff %” value is on record as 112%. Besides, in test [2], the response was half-maximal at 1000 nM (EC50) and the “Human-MrgX1 Eff(%)” value is 325%. Also, the “Monkey-MrgX2 Eff(%)” value in test [3] is reported as 18%. Moreover, the Emax in test [4] came out at 107%. Also, in test [5], the “Human-MrgX2 pEC50” value was “nr” and the “Human-MrgX2 Eff(%)” value is recorded as 46%.
As for `COc1ccc(NC(=O)c2ccc3c(c2)nc(-c2cccc(Oc4ccccc4)c2)n3C(CCCNC(=N)N)C(N)=O)cc1` (stereo not drawn) [Compound 27], in test [2], the “Human-MrgX1 pEC50” value amounted to 6.1 and the “Human-MrgX1 Eff(%)” value is listed as 133%. Moreover, in test [5], the “Human-MrgX2 pEC50” value was “nr” and the “Human-MrgX2 Eff(%)” value was determined as 4%.
The matching figures for `CCCCNC(=O)c1ccc2c(c1)nc(-c1cccc(Oc3ccccc3)c1)n2C(CCCNC(=N)N)C(N)=O` (stereo not drawn) [Compound 30]: 6.2, 150%, “nr” and 11%.
As for `N=C(N)NCCCC(C(N)=O)n1c(-c2cccc(Oc3ccccc3)c2)nc2cc(C(=O)Nc3nccs3)ccc21` (stereo not drawn) [Compound 31], in test [2], the “Human-MrgX1 pEC50” value is 5.6 and the “Human-MrgX1 Eff(%)” value turned out to be 73%. For the same molecule, in test [5], the “Human-MrgX2 pEC50” value is reported as “nr” and the “Human-MrgX2 Eff(%)” value stood at 6%.
